Series [1] deals with skin model (EFT-400, MatTek Corp.). Briefly: Immunostaining of skin models. In kind it is cell-based. As to conditions: skin model sections, vs control group; for expression level of heparan sulfate (immunostaining): days 4 and 8 of culturing, FIG. 4E-4H; for expression level of loricrin (immunostaining): FIG. 5A-5D; for expression level of filaggrin (immunostaining): FIG. 5E-5H. The procedure: A skin model (EFT-400, MatTek Corp.) was cultured in a special-purpose medium (EFT-400-ASY, MatTek Corp.). Dimethylsulfoxide (DMSO) and ethanol were added to the special-purpose medium to a final concentration of 0.1% for use as a control group, 50 mM 1-[4-(1H-benzoimidazol-2-yl)-phenyl]-3-[4-(1H-benzoimidazol-2-yl)-phenyl]urea (solvent: DMSO) were added to the special-purpose medium to a final concentration of 50 μM for use as a heparanase inhibitor group, 10 mM N-hydroxy-2-[[(4-methoxyphenyl)sulfonyl](3-picolyl)amino]-3-methylbutaneamide hydrochloride (CGS27023A, solvent: ethanol) were added to the special-purpose medium to a final concentration of 10 μM for use as an MMP inhibitor group, and 50 mM 1-[4-(1H-benzoimidazol-2-yl)-phenyl]-3-[4-(1H-benzoimidazol-2-yl)-phenyl]urea (solvent: DMSO) and 10 mM CGS27023A (solvent: ethanol) were added to the special-purpose medium to final concentrations of 50 μM and 10 μM, respectively, for use as a combination heparanase inhibitor+metalloproteinase (MMP) inhibitor group. The medium was replaced daily at 2 mL/well, and the skin model was recovered and used for experimentation on days 4 and 8 of culturing. In addition, during replacement of the medium, all of the culture fluid was collected and stored at −80° C.° for use in the experiments described below.
The skin models following culturing were cut in half with a scalpel and placed in acetone at 4° C. followed by allowing to stand undisturbed for 48 hours at 4° C. The solution was replaced with acetone, methyl benzoate and xylene in that order followed by embedding in paraffin to prepare paraffin blocks in accordance with the AMeX method. Tissue sections having a thickness of 3 μm were prepared followed by immunostaining with perlecan (FIGS. 4A to 4D), heparan sulfate (FIGS. 4E to 4H), loricrin (FIGS. 5A to 5D), filaggrin (FIGS. 5E to 5H) and Ki67 (FIG. 6) on days 4 and 8 of culturing. […] In addition, in the groups containing heparanase inhibitor, the presence of proliferative cells positive for Ki67 was clearly determined to be maintained.

The test system is the same in series [2]. Put plainly: Measurement of hyaluronic acid levels in cultured skin model. The settings on record: heparanase inhibitor 50 μM, CGS27023A 10 μM, FIG. 1B. In kind it is cell-based. The method, then: A skin model (EFT-400, MatTek Corp.) was cultured in a special-purpose medium (EFT-400-ASY, MatTek Corp.). […]
Measurement of hyaluronic acid levels was carried out on the aforementioned cultured control group (n=5), MMP inhibitor group (n=5), heparanase inhibitor group (n=5) and combination MMP inhibitor+heparanase inhibitor group (n=5) (n refers to the number of each skin model used in testing). […] The culture supernatants stored at −80° C. were then thawed and hyaluronic acid levels in these solutions were then measured with a hyaluronic acid assay kit (Seikagaku Corp.).

Series [3] is described as follows: Measurement of moisture transpiration rate constants (filter paper weight loss). The format is physicochemical. The settings on record: 10 μl on filter paper, slope 3 to 8 min, FIG. 3. The procedure: Heparan sulfate (n=5), chondroitin sulfate A (n=5), chondroitin sulfate B (n=5), keratan sulfate (n=5) and hyaluronic acid (n=5) were dissolved in MilliQ to prepare 0.2% aqueous solutions of each, and 5.0% glycerin (n=5) and MilliQ were prepared for use as a comparative sample (n refers to the respective number of samples). Filter paper cut to a size of 2 cm×2 cm was placed on a balance, and the filter paper was impregnated with 10 μl of each solution followed by measuring the weight of the filter paper for 8 minutes at 1 minute intervals. The weight (mg) of the filter paper from 3 to 8 minutes after the start of measurement was plotted on the vertical axis, elapsed time (min) was plotted on the horizontal axis, and the slope (mg/min) of the resulting line was calculated as the moisture transpiration rate constant (FIG. 3).

For `O=C(Nc1ccc(-c2nc3ccccc3[nH]2)cc1)Nc1ccc(-c2nc3ccccc3[nH]2)cc1` [heparanase inhibitor, 1-[4-(1H-benzoimidazol-2-yl)-phenyl]-3-[4-(1H-benzoimidazol-2-yl)-phenyl]urea], in series [1], the “expression level of heparan sulfate (immunostaining)” value was “increased”, the “expression level of loricrin (immunostaining)” value is recorded as “increased” and the “expression level of filaggrin (immunostaining)” value is “increased”. In addition, the “hyaluronic acid levels in culture supernatant” value in series [2] was “significant decreases”.

For hyaluronic acid, the “moisture transpiration rate constant” value in series [3] (0.2% aqueous solution) is on record as “remarkably low”.

Take `COc1ccc(S(=O)(=O)N(Cc2cccnc2)C(C(=O)NO)C(C)C)cc1.Cl` (stereo not drawn) [MMP inhibitor, N-hydroxy-2-[[(4-methoxyphenyl)sulfonyl](3-picolyl)amino]-3-methylbutaneamide hydrochloride]: in series [1], the “expression level of heparan sulfate (immunostaining)” value was “increased”, the “expression level of loricrin (immunostaining)” value was “increased” and the “expression level of filaggrin (immunostaining)” value was “increased”.

With `OCC(O)CO` [glycerin], the “moisture transpiration rate constant” value in series [3] (5.0% glycerin comparative sample) was “roughly the same”.

The values above are taken from patent US20120328719A1, “EXTERNAL PREPARATION FOR SKIN” (Shiseido Company, Ltd., priority 2010, published 2012).
